# Measurements published in patent US8871510B2, “Methods for generating T lymphocytes from hematopoietic stem cells” (University of Utah Research Foundation, priority 2009, dated 2014).
# What was measured:
# [1] = test system: mouse lymphoid progenitor cells (c-kit+Sca-1+ lineage-neg CD90.1-neg); experiment: Ascorbate versus other anti-oxidants in OP9-DL1 lymphoid progenitor culture (30 days); type: cell-based; settings: added after 14 days, culture through 30 days; anti-oxidants data not shown
# Protocol: To establish the mechanism by which ascorbic acid promotes T cell development, we initially tested whether the anti-oxidant activity of ascorbic acid plays a key role. To test this, mouse lymphoid progenitor cells were isolated from adult bone marrow tissue by flow sorting, based on the phenotype c-kit+Sca-1+ lineage-neg CD90.1-neg, and 1000-2000 cells were plated per ml in the presence of the cytokines IL7 and Flt3L and the stromal cell line OP9-DL1. Cultures were harvested by forceful pipetting every 3-4 days and reseeded on a fresh monolayer of OP9-DL1 cells. After 14 days in culture, the cell number had expanded approximately 1000-fold (data not shown). At this point, the culture was split into two conditions, with one set of cultures supplemented with 1-ascorbic acid-2-phosphate (250 μg/ml), and the passages were continued through 30 days. […] Numbers indicate the percentage of cells with co-expression of CD4 and CD8 or CD3 and TCR.
# [2] = test system: mouse bone marrow-derived progenitor cells; experiment: Growth kinetics of bone marrow-derived progenitor cells in OP9-DL1 cultures (cytokines, ΔQ, NH4Cl); type: cell-based
# Description: The combination of Flt3L and IL-7 promotes 10^5-fold expansion over 26 days, while addition of stem cell factor (SCF) enhances this by 5-fold. […] The growth inhibition is mainly due to the failure of selection by TCR signaling, as shown by the failure of CD4^+CD8^+ double positive (DP) cells to survive and expand.
# In this Example, several important variables that are important to the successful development of T lymphocytes from bone marrow-derived cells were identified. […] Our experiments defining optimal culture conditions tell us that in order to promote T cell development from bone marrow-derived progenitor cells, a two-stage culture system is required. In the first stage, bone marrow cells are expanded under the influence of lymphoid-specifying cytokines (IL-7 and Flt3 ligand) and notch signaling delivered by OP9-DL1 cells. The expansion of the resulting pro-T cells is robust, reaching a total expansion of 10^5-fold or more (FIG. 1).
# All cultures were initiated by seeding 2×10^3 FACS-sorted bone marrow progenitor cells, selected based on the surface phenotype c-kit+Sca-1+Thy-1.1-neg lineage-neg, onto a feeder layer of OP9-DL1 stromal cells. All cultures contained 1 ng/ml IL-7 and 5 ng/ml Flt3L and otherwise identical additives (10% fetal calf serum, stabilized alanyl-glutamine, antibiotics, 2-ME, supplemental amino acids, and supplemental vitamins).
# [3] = test system: Lymphocyte progenitor cells (KLS, Thy1.1-); experiment: TLR-L and ascorbic acid effects on NK and T cell development from lymphoid progenitors co-cultured with OP9-DL1; type: cell-based, mouse; settings: SCF contaminated with LPS through production in E. coli
# Protocol: We therefore designed experiments to evaluate the differential effects of TLR-L and ascorbic acid on NK and T cell development from lymphoid progenitors co-cultured with OP9-DL1 stromal cells. Lymphocyte progenitor cells (KLS, Thy1.1-) were sorted from adult mouse bone marrow and 1000-2000 progenitor cells were seeded per well in a 24 well plate coated with OP9-DL1 stroma. Cultures were supplemented with IL-7 (5 ng/ml), Flt3 ligand (5 ng/ml), and SCF (100 ng/ml) plus one of 5 different TLR-L (TLR1/2, TLR3, TLR4, TLR5, and a crude LPS preparation that likely contains a number of TLR-L), with or without addition of a stabilized form of ascorbic acid, phosphoascorbate at a final concentration of 250 μg/ml. Cells were passaged, counted and re-seeded with fresh media and supplements twice a week over a 30-day period. Immunophenotype and viability were evaluated by flow cytometry. Markers for T cell development included CD44, CD25, CD3, CD4, CD8, T cell receptor […] and T cell receptor γδ chains. NK cells were evaluated for the presence of NKp46, NK1.1, and DX5.
Compound,Differentiating effect (CD4/CD8 and CD3/TCR co-expression) [1],other results
N[C@@H](CS)C(=O)O [1-cysteine],not reproduced,
CC(=O)N[C@@H](CS)C(=O)O [N-acetyl-cysteine],not reproduced,
"Cl.N [NH4Cl, reference compound]",,"Expansion of the T lineage ([2]; day 15 of culture, FIG. 1B): cease to expand"
O=C(O)CCCCC1CCSS1 (stereo not drawn) [alpha-lipoic acid],not reproduced,
SCF: stem cell factor; in b105 contaminated with LPS through its production in E. coli,,"Enhancement of expansion on addition to Flt3L and IL-7 ([2]; over 26 days, FIG. 1A): 5 fold; Promotion of NK cell development in the OP9-DL1 culture system [3]: particularly effective"
